{"source": "patent US20240131112A1", "about": "“USE OF METHANOBACTIN FOR TREATMENT OF IRON-RELATED DISEASES” (Helmholtz Zentrum Muenchen - Deutsches Forschungszentrum …, priority 2021, published 2024)", "key": {"[1]": {"test_system": "livers from LPP Atp7b^−/− rats", "test": "Liver perfusion experiments, biliary iron excretion", "parameters": "species or system rat", "details": "liver perfusion one hour at 37° C., 35 μmol methanobactin, ICP-OES", "description": "Cannulated livers from LPP Atp7b^−/− rats were perfused for one hour at 37° C. with Krebs-Ringer bicarbonate solution, gassed with 95% O2 and 5% CO2, and MB-SB2 or MB-OB3b (35 μmol). During perfusion total bile was collected in 10-minute intervals. Biliary iron concentrations were determined by inductively coupled plasma optical emission spectrometry (ICP-OES) as described (Lichtmannegger et al. J Clin Invest, 2016, 126, 2721-2735)."}, "[2]": {"test_system": "LPP Atp7b^−/− rats", "test": "Fecal iron excretion after intraperitoneal injection", "format": "in vivo, rat", "details": "i.p. twice a day for four days, 110 mg/kg bw MB-SB2 or 150 mg/kg bw MB-OB3b, ICP-OES", "description": "LPP Atp7b^−/− rats were injected intraperitoneally (i.p.) twice a day for four consecutive days with either 110 mg/kg bw MB-SB2 or 150 mg/kg bw MB-OB3b. Rats were housed individually in metabolic cages for 4 days. Feces of each rat was collected in 24-hour periods at 24, 48, 72 and 96 hours after treatment start. Feces was separated from chow residues, dried, homogenized by grinding or milling and digested with concentrated HNO3 and iron content determined with inductively coupled plasma optical emission spectrometry (ICP-OES)."}, "[3]": {"test_system": "Huh7 cells (human hepatoma cell line)", "test": "Cellular iron concentration in iron-preloaded Huh7 cells", "format": "cell-based", "details": "Huh7 preloaded 24 hours with 50 μM FAC, then 0.5 mM test substance for 24 hours, N=4", "description": "FIG. 5: Control Huh7 cells (human hepatoma cell line) were preloaded for 24 hours with 50 μM FAC. The cells were then treated with 0.5 mM MB-SB2, 0.5 mM MB-OB3b and 0.5 mM DFO for 24 hours. […] Statistical analysis was done by One-way ANOVA (N=4)."}}}
{"smiles": "CC(NC(=O)C(C)NC(=S)C1N=C(C(NC(=O)C(CO)NC(=O)C(C)NC(=S)C2N=C(C(=O)CCCNC(=N)N)NC2=O)C(C)OS(=O)(=O)O)OC1=O)C(=O)O", "note": "(stereo not drawn) [MB-SB2]", "values": [{"measurement": "Biliary iron excretion", "setting": "[1]", "result": "brings iron to the bile"}, {"measurement": "Fecal iron excretion", "setting": "[2]", "result": "excrete iron in feces"}, {"measurement": "Cellular iron concentration", "setting": "[3]", "result": "significantly reduces cellular iron concentration in iron-preloaded Huh7 cells to the untreated level"}]}
